Measured values as given in ChEMBL document CHEMBL1142318, “Azetidine based transition state analogue inhibitors of N-ribosyl hydrolases and phosphorylases” (J Med Chem, 2008).

Tests used:
[1] = molecular target: T1, Purine nucleoside phosphorylase (Plasmodium falciparum, UniProt Q8T9Z7); test: Inhibition of Plasmodium falciparum PNP
T1 sequence (Q8T9Z7 whole entry): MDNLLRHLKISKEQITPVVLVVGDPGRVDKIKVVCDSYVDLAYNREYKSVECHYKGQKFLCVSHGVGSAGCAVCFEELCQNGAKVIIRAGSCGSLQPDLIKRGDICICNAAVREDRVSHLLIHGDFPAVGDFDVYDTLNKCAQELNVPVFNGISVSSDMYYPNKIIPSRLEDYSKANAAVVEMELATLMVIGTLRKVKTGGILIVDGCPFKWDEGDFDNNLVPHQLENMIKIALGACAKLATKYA

[2] = molecular target: T2, S-methyl-5'-thioadenosine phosphorylase (Homo sapiens, UniProt Q13126); test: Inhibition of human MTAP
T2 sequence (Q13126 whole entry): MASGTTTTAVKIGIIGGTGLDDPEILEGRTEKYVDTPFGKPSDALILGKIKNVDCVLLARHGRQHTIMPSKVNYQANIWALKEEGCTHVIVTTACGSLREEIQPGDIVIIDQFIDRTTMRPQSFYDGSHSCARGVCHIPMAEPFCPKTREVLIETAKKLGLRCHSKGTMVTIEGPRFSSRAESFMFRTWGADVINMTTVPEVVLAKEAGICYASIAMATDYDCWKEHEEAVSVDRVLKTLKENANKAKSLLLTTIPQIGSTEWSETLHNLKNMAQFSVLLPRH

[3] = molecular target: 5'-methylthioadenosine/S-adenosylhomocysteine nucleosidase (Escherichia coli O157:H7, UniProt P0AF14)
[4] = molecular target: T3, 5'-methylthioadenosine/S-adenosylhomocysteine nucleosidase (Streptococcus pneumoniae serotype 4 (strain ATCC BAA-334 / TIGR4), UniProt A0A0H2UPP7); test: Inhibition of Streptococcus pneumoniae MTAN
T3 sequence (A0A0H2UPP7 whole entry): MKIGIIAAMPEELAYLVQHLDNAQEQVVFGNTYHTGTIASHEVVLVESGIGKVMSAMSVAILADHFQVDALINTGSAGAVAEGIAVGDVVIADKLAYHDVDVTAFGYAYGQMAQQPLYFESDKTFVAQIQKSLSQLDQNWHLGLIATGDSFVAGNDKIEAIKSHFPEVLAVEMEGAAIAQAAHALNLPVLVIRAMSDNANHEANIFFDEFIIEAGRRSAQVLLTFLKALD

[5] = molecular target: T4, Purine nucleoside phosphorylase (Homo sapiens, UniProt P00491); test: Inhibition of human PNP
T4 sequence (P00491 whole entry): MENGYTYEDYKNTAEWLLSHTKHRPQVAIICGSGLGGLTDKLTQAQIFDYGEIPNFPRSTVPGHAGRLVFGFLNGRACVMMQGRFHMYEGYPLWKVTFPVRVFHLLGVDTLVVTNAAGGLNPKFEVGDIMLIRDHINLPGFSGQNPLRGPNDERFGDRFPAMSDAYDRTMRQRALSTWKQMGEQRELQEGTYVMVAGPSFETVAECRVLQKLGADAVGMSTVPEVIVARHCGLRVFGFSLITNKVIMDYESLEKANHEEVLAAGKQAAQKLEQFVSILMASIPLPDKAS

[6] = molecular target: T5, Purine nucleoside phosphorylase (Bos taurus, UniProt P55859); test: Inhibition of bovine PNP
T5 sequence (P55859 whole entry): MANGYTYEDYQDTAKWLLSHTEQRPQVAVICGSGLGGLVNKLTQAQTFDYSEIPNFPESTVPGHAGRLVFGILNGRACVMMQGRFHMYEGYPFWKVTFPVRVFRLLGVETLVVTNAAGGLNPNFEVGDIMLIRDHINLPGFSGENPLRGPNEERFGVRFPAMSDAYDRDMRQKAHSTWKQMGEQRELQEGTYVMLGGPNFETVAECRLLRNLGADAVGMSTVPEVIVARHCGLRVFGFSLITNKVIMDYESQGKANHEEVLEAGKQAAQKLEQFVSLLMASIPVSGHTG

5'-methylthioadenosine/S-adenosylhomocysteine nucleosidase (Escherichia coli O157:H7, UniProt P0AF14), sequence (P0AF14 whole entry): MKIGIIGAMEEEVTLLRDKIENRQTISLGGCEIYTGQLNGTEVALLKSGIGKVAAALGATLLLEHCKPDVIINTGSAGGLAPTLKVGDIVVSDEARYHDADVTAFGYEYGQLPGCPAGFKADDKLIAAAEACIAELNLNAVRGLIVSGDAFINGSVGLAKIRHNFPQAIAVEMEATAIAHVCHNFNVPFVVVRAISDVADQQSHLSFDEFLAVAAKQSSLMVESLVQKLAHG

SMILES | Ki [1] [nM] | Ki [2] [nM] | Ki [3] [nM] | Ki [4] [nM] | Ki [5] [nM] | Ki [6] [nM]
O=c1[nH]cnc2c(CN3CC(CO)C3)c[nH]c12 | > 10000 | – | – | – | – | –
CSC[C@H]1CN(Cc2c[nH]c3c(N)ncnc23)C[C@@H]1O | – | 0.09 | 0.002 | 24 | – | –
CSCC1CN(Cc2c[nH]c3c(N)ncnc23)C1 | – | – | 0.45 | 84 | – | –
O=c1[nH]cnc2c(CN3C(CO)CC3CO)c[nH]c12 (stereo not drawn) | 1290 | – | – | – | 12.9 | 16
CSCC1(CO)CN(Cc2c[nH]c3c(N)ncnc23)C1 | – | – | 0.84 | 150 | – | –
O=c1[nH]cnc2c(CN3CC(CO)(CO)C3)c[nH]c12 | > 10000 | – | – | – | – | –
O=c1[nH]cnc2c(CN3[C@@H](CO)C[C@@H]3CO)c[nH]c12 (racemic) | 580 | – | – | – | 280 | 360
O=c1[nH]cnc2c(CN3C[C@H](CO)[C@@H](O)C3)c[nH]c12 [ULODESINE] | 0.5 | – | – | – | 0.0107 | 0.1
